According to PubChem BioAssay AID2060882 (Molecular Pharmacology Branch, DTP, NCI, 2025):

Test system: 898857-211-R-J1-PDC complex spheroids, growth % test/control
Test: Anticancer human tumor 898857-211-R-J1-PDC patient-derived melanoma cell line growth inhibition [RAS]
Settings: for IC50: curve of first compound; for viability, T/C: stronger effect = lower value; active = viability on the fitted dose curve at most 10% of control; inactive = the rest
In short: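 Multi-cell-type spheroids: tumor cells plus HUVEC endothelial cells and mesenchymal stem cells. RAS-pathway inhibitors were combined with targeted agents, each dosed in half-log steps down from clinical Cmax, or from 10 microM when Cmax was unknown.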

[1] = second compound 0.000949 µM, first compound 0.0316 µM
[2] = second compound 0.000949 µM, first compound 0.1 µM
[3] = second compound 0.000949 µM, first compound 0.316 µM
[4] = second compound 0.000949 µM, first compound 1 µM
[5] = second compound 0.000949 µM, first compound 3.16 µM
[6] = second compound 0.000949 µM, first compound 10 µM
[7] = second compound 0.003 µM, first compound 0.0316 µM
[8] = second compound 0.003 µM, first compound 0.1 µM
[9] = second compound 0.003 µM, first compound 0.316 µM
[10] = second compound 0.003 µM, first compound 1 µM
[11] = second compound 0.003 µM, first compound 3.16 µM
[12] = second compound 0.003 µM, first compound 10 µM
[13] = second compound 0.00949 µM, first compound 0.0316 µM
[14] = second compound 0.00949 µM, first compound 0.1 µM
[15] = second compound 0.00949 µM, first compound 0.316 µM
[16] = second compound 0.00949 µM, first compound 1 µM
[17] = second compound 0.00949 µM, first compound 3.16 µM
[18] = second compound 0.00949 µM, first compound 10 µM
[19] = second compound 0.03 µM, first compound 0.0316 µM
[20] = second compound 0.03 µM, first compound 0.1 µM
[21] = second compound 0.03 µM, first compound 0.316 µM
[22] = second compound 0.03 µM, first compound 1 µM
[23] = second compound 0.03 µM, first compound 3.16 µM
[24] = second compound 0.03 µM, first compound 10 µM
[25] = second compound 0.0949 µM, first compound 0.0316 µM
[26] = second compound 0.0949 µM, first compound 0.1 µM
[27] = second compound 0.0949 µM, first compound 0.316 µM
[28] = second compound 0.0949 µM, first compound 1 µM
[29] = second compound 0.0949 µM, first compound 3.16 µM
[30] = second compound 0.0949 µM, first compound 10 µM
[31] = second compound 0.3 µM, first compound 0.0316 µM
[32] = second compound 0.3 µM, first compound 0.1 µM
[33] = second compound 0.3 µM, first compound 0.316 µM
[34] = second compound 0.3 µM, first compound 1 µM
[35] = second compound 0.3 µM, first compound 3.16 µM
[36] = second compound 0.3 µM, first compound 10 µM
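Note: spheroids exposed to compound for seven days before readout.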
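Throughout, for viability, T/C: 100% = DMSO vehicle control wells.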

CC1(O)CCCC1n1c(=O)c(C(F)F)cc2cnc(NC3CCN(S(C)(=O)=O)CC3)nc21 (stereo not drawn) + CCn1c(-c2cc(N3CCN(C)CC3)cnc2C(C)OC)c2c3cc(ccc31)-c1csc(n1)CC(NC(=O)C1CC1C)C(=O)N1CCCC(N1)C(=O)OCC(C)(C)C2
138 nM: IC50 (second compound 0.00949 µM)
124 nM: IC50 (second compound 0.03 µM)
121 nM: IC50 (second compound 0.000949 µM)
188 nM: IC50 (second compound 0.0949 µM)
168 nM: IC50 (second compound 0.003 µM)
inactive: viability, T/C [1] 92.9% | viability, T/C [2] 49.7% | viability, T/C [3] 35.1% | viability, T/C [4] 38.6% | viability, T/C [5] 36.2% | viability, T/C [6] 15.2% | viability, T/C [7] 90.7% | viability, T/C [8] 58.5% | viability, T/C [9] 33.5% | viability, T/C [10] 39.4% | viability, T/C [11] 35.1% | viability, T/C [12] 17.2% | viability, T/C [13] 78.2% | viability, T/C [14] 51% | viability, T/C [15] 37.6% | viability, T/C [16] 34.7% | viability, T/C [17] 37.5% | viability, T/C [18] 15.4% | viability, T/C [19] 100% | viability, T/C [20] 49.5% | viability, T/C [21] 38.4% | viability, T/C [22] 36.5% | viability, T/C [23] 36.7% | viability, T/C [24] 16.6% | viability, T/C [25] 96% | viability, T/C [26] 53.6% | viability, T/C [27] 43.2% | viability, T/C [28] 38.7% | viability, T/C [29] 37.2% | viability, T/C [30] 16.9% | viability, T/C [31] 107% | viability, T/C [32] 55.4% | viability, T/C [33] 33.6% | viability, T/C [34] 36.3% | viability, T/C [35] 34.2% | viability, T/C [36] 16%
144 nM: IC50 (second compound 0.3 µM)

CCC(CC)c1cc(NC2CCC(N)C2)n2nccc2n1 (stereo not drawn) + CCn1c(-c2cc(N3CCN(C)CC3)cnc2C(C)OC)c2c3cc(ccc31)-c1csc(n1)CC(NC(=O)C1CC1C)C(=O)N1CCCC(N1)C(=O)OCC(C)(C)C2
604 nM: IC50 (second compound 0.3 µM)
609 nM: IC50 (second compound 0.00949 µM)
589 nM: IC50 (second compound 0.003 µM)
active: viability, T/C [5] 0.45% | viability, T/C [6] 0.75% | viability, T/C [11] 0.27% | viability, T/C [12] 0.25% | viability, T/C [17] 0.8% | viability, T/C [18] 0.2% | viability, T/C [23] 0.38% | viability, T/C [24] 0.27% | viability, T/C [29] 0.81% | viability, T/C [30] 0.19% | viability, T/C [35] 0.32% | viability, T/C [36] 0.26%
inactive: viability, T/C [1] 113% | viability, T/C [2] 100% | viability, T/C [3] 87.1% | viability, T/C [4] 19.7% | viability, T/C [7] 95.1% | viability, T/C [8] 94% | viability, T/C [9] 82% | viability, T/C [10] 22.8% | viability, T/C [13] 92.2% | viability, T/C [14] 105% | viability, T/C [15] 84.4% | viability, T/C [16] 23.6% | viability, T/C [19] 102% | viability, T/C [20] 89.5% | viability, T/C [21] 80.9% | viability, T/C [22] 21.2% | viability, T/C [25] 109% | viability, T/C [26] 102% | viability, T/C [27] 86.3% | viability, T/C [28] 23.8% | viability, T/C [31] 104% | viability, T/C [32] 105% | viability, T/C [33] 84.8% | viability, T/C [34] 22.9%
615 nM: IC50 (second compound 0.0949 µM)
571 nM: IC50 (second compound 0.03 µM)
594 nM: IC50 (second compound 0.000949 µM)

Cc1nc(N2CCC3(CC2)COC(C)C3N)c(CO)nc1Sc1ccnc(N)c1Cl (stereo not drawn) + CCn1c(-c2cc(N3CCN(C)CC3)cnc2C(C)OC)c2c3cc(ccc31)-c1csc(n1)CC(NC(=O)C1CC1C)C(=O)N1CCCC(N1)C(=O)OCC(C)(C)C2
> 10000 nM: IC50 (second compound 0.000949 µM) | IC50 (second compound 0.003 µM) | IC50 (second compound 0.00949 µM) | IC50 (second compound 0.03 µM) | IC50 (second compound 0.0949 µM) | IC50 (second compound 0.3 µM)
inactive: viability, T/C [1] 99.6% | viability, T/C [2] 98% | viability, T/C [3] 93.6% | viability, T/C [4] 94.2% | viability, T/C [5] 94.3% | viability, T/C [6] 86.1% | viability, T/C [7] 96.1% | viability, T/C [8] 92.2% | viability, T/C [9] 105% | viability, T/C [10] 96.4% | viability, T/C [11] 92.2% | viability, T/C [12] 85.5% | viability, T/C [13] 96% | viability, T/C [14] 110% | viability, T/C [15] 112% | viability, T/C [16] 103% | viability, T/C [17] 96.9% | viability, T/C [18] 77.7% | viability, T/C [19] 109% | viability, T/C [20] 107% | viability, T/C [21] 106% | viability, T/C [22] 97.6% | viability, T/C [23] 99.5% | viability, T/C [24] 74.8% | viability, T/C [25] 115% | viability, T/C [26] 116% | viability, T/C [27] 110% | viability, T/C [28] 107% | viability, T/C [29] 107% | viability, T/C [30] 84.7% | viability, T/C [31] 90.7% | viability, T/C [32] 105% | viability, T/C [33] 99.2% | viability, T/C [34] 111% | viability, T/C [35] 104% | viability, T/C [36] 76.9%

NC1c2ccccc2OC12CCN(c1cnc3c(N4CCCc5ncccc54)n[nH]c3n1)CC2 (stereo not drawn) + CCn1c(-c2cc(N3CCN(C)CC3)cnc2C(C)OC)c2c3cc(ccc31)-c1csc(n1)CC(NC(=O)C1CC1C)C(=O)N1CCCC(N1)C(=O)OCC(C)(C)C2
> 10000 nM: IC50 (second compound 0.000949 µM) | IC50 (second compound 0.003 µM) | IC50 (second compound 0.00949 µM) | IC50 (second compound 0.03 µM)
8350 nM: IC50 (second compound 0.0949 µM)
8210 nM: IC50 (second compound 0.3 µM)
inactive: viability, T/C [1] 101% | viability, T/C [2] 87.5% | viability, T/C [3] 91.5% | viability, T/C [4] 81.9% | viability, T/C [5] 81.4% | viability, T/C [6] 51% | viability, T/C [7] 103% | viability, T/C [8] 87.9% | viability, T/C [9] 101% | viability, T/C [10] 85.7% | viability, T/C [11] 81.3% | viability, T/C [12] 55.5% | viability, T/C [13] 87.7% | viability, T/C [14] 97.7% | viability, T/C [15] 92.1% | viability, T/C [16] 102% | viability, T/C [17] 74.3% | viability, T/C [18] 56.7% | viability, T/C [19] 91.5% | viability, T/C [20] 87.8% | viability, T/C [21] 93.8% | viability, T/C [22] 73.5% | viability, T/C [23] 81.9% | viability, T/C [24] 50% | viability, T/C [25] 113% | viability, T/C [26] 99.8% | viability, T/C [27] 102% | viability, T/C [28] 88.5% | viability, T/C [29] 83.9% | viability, T/C [30] 43% | viability, T/C [31] 112% | viability, T/C [32] 92.6% | viability, T/C [33] 81.3% | viability, T/C [34] 98% | viability, T/C [35] 78.7% | viability, T/C [36] 43.5%
